The values below come from patent US20110230493A1, “1-OXA-8-Azaspiro [4,5] Decabe-8-Carboxamide Compounds as FAAH Inhibitors” (Pfizer Inc., priority 2008, published 2011).

Marks after values point to notes of the source that are not given here.

Assay [1] deals with T1, human FAAH (Homo sapiens, UniProt O00519).
T1 construct: made in house; host or cells: E. coli
T1 sequence (O00519 1-579): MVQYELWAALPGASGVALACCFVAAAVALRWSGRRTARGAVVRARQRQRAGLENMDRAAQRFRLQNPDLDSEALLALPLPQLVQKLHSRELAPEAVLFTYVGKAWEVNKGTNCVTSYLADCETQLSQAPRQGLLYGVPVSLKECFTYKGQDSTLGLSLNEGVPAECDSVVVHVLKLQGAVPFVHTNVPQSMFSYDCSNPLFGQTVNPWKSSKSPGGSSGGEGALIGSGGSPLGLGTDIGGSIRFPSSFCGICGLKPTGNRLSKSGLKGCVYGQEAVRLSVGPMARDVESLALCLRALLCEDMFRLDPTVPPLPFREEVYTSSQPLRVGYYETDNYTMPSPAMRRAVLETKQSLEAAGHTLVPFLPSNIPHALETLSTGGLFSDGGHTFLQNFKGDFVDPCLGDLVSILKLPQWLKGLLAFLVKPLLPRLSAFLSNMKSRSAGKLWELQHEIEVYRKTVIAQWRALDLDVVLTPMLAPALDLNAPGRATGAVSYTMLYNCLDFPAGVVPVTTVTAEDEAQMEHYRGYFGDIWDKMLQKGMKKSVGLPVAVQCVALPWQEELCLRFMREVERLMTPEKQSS
Nature of the assay: FAAH assay, human FAAH enzyme inactivation (kinact/Ki). The format is biochemical. The following applies: oleamide 50 μM, 30° C.; for kinact/KI: pH 7.4, in vitro, read-out: hFAAH kinact/Ki; for hFAAH kinact/Ki: in vitro, pH 7.4. The essentials: (§1)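 Oleamide hydrolysis by 1-4 nM purified E. coli-expressed FAAH (substrate 50 μM = Km) coupled to GDH/NADH, pH 7.4 phosphate, 7.5% DMSO and EtOH, 30° C; A340 followed 90 min. kobs from mono-exponential fits; kinact/Ki from kobs-versus-concentration slope, multiplied by two.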

Assay [2] deals with T2, rat FAAH (Rattus norvegicus, UniProt P97612).
T2 construct: made in house; host or cells: E. coli
T2 sequence (P97612 1-579): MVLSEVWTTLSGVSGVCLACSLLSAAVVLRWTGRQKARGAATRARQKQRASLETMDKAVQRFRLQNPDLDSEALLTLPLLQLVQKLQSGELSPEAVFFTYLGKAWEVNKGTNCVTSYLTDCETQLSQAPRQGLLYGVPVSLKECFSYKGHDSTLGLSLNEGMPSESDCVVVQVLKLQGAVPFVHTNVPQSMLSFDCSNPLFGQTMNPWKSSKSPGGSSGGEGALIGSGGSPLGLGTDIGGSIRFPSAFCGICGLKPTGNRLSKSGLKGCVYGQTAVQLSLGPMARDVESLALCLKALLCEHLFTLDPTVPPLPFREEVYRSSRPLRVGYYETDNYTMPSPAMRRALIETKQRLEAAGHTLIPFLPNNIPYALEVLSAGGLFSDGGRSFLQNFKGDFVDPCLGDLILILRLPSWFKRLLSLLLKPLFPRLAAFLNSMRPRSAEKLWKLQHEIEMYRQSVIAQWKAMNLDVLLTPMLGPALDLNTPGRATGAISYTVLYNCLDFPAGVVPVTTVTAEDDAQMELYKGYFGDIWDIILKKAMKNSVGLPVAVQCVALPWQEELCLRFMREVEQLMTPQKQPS
Nature of the assay: FAAH assay, rat FAAH enzyme inactivation (kinact/Ki). It counts as biochemical. The conditions noted are these: oleamide 50 μM, 30° C.; for kinact/KI: pH 7.4, in vitro, read-out: rFAAH kinact/Ki; for rFAAH kinact/Ki: in vitro, pH 7.4. The procedure, abridged: as §1

The subject of assay [3] is Male Sprague-Dawley Rats. Kind of assay: In vivo Complete Freund's Adjuvant (CFA) efficacy assay, inhibition of allodynia. Set-up: species or system rat; key: (+) indicates the test compound was determined to be efficacious at 3 mpk, oral dosing; (−) indicates the test compound was determined to not be efficacious at 3 mpk, oral dosing. The conditions noted are these: p < 0.05 vs vehicle group. The method, then: For additional information on the CFA efficacy assay, see Jayamanne et al., Brit. J. Pharmacol. 2006, 147, 281-288. Experiments were performed on adult Male Sprague-Dawley Rats (200 g-250 g). Inflammation was induced in the left hindpaw of the rat by an intra-plantar injection of 150 uL Complete Freund's Adjuvant (CFA) (SIGMA F5881). The CFA injection immediately induces local inflammation, paw swelling, and pain that persists for at least two weeks post-injection. Baseline paw withdrawal threshold (PWT) was measured to determine the percent inhibition of allodynia using a set of Von Frey Hairs on day 4 post injection as illustrated by the Dixon Up and Down Method (W. J. Dixon, Ann. Rev. Pharmacol. Toxicol. 1980, 20:441-462). […] Following Dose administration PWT threshold was evaluated again at four hours postdose. The Sprague-Dawley rats used in this assay were purchased from Harlan, 8520 Allison Pointe Blvd., Indianapolis, Ind., 46250, U.S.A. Sprague-Dawley rats are an outbred breed of albino rats first produced by the Sprague Dawley farms in Madison, Wis., U.S.A.
Percent Inhibition of Allodynia was determined by the formula: […]
ΔPWT measurements were averaged for each treatment group and statistical comparisons between groups were made using ANOVA and Dunnett's two-tailed test. […]

[4] abbreviates: 3 mpk, oral dosing, PWT four hours postdose.

Regarding `O=C(Nc1cccnn1)N1CCC2(CC1)CC(c1cccc(Oc3ccc(C(F)(F)F)cn3)c1)CO2` (racemic) [Example 1, (3RS)—N-pyridazin-3-yl-3-(3-{[5-(trifluoromethyl)pyridin-2-yl]oxy}phenyl)-1-oxa-8-azaspiro[4.5]decane-8-carboxamide], the kinact/KI is 3130 M⁻¹ s⁻¹ in assay [1] and 1880 M⁻¹ s⁻¹ in assay [2]. Besides, in assay [3] (25 mpk, intraperitoneal dosing), the “CFA Efficacy” value was “(+)^d”.
Turning to `Cc1noc(NC(=O)N2CCC3(CC2)CC(c2cccc(OC(F)(F)F)c2)CO3)c1C` (single isomer, unassigned) [Example 33, N-(3,4-dimethylisoxazol-5-yl)-3-[3-(trifluoromethoxy)phenyl]-1-oxa-8-azaspiro[4.5]decane-8-carboxamide], the values for the kinact/KI in assay [1] and in assay [2] were 3420 M⁻¹ s⁻¹ and 4070 M⁻¹ s⁻¹, respectively. The “CFA Efficacy” value in assay [3] (setting [4]) is listed as “(+)”.
Turning to `Cc1noc(NC(=O)N2CCC3(CC2)CC(c2cccc(OC(F)(F)F)c2)CO3)c1C` (single isomer, unassigned) [Example 34, N-(3,4-dimethylisoxazol-5-yl)-3-[3-(trifluoromethoxy)phenyl]-1-oxa-8-azaspiro[4.5]decane-8-carboxamide], in assay [1], the “hFAAH kinact/Ki” value came out at 1840 M⁻¹ s⁻¹. For the same compound, the “rFAAH kinact/Ki” value in assay [2] stood at 2610 M⁻¹ s⁻¹. Besides, in assay [3] (setting [4]), the “CFA Efficacy” value was “(+)”.
As to `Cc1noc(NC(=O)N2CCC3(CC2)CC(c2cccc(Cl)c2)CO3)c1C` (single isomer, unassigned) [Example 35, 3-(3-chlorophenol)-N-(3,4-dimethylisoxazol-5-yl)-1-oxa-8-azaspiro[4.5]decane-8-carboxamide], in assay [1], the kinact/KI stood at 2390 M⁻¹ s⁻¹. For the same compound, the “rFAAH kinact/Ki” value in assay [2] amounted to 1560 M⁻¹ s⁻¹. In assay [3] (setting [4]), the “CFA Efficacy” value is “(+)”.
`Cc1noc(NC(=O)N2CCC3(CC2)CC(c2cccc(Cl)c2)CO3)c1C` (single isomer, unassigned) [Example 36, 3-(3-chlorophenyl)-N-(3,4-dimethylisoxazol-5-yl)-1-oxa-8-azaspiro[4.5]decane-8-carboxamide]: the “hFAAH kinact/Ki” value in assay [1] came out at 2590 M⁻¹ s⁻¹. In addition, the “rFAAH kinact/Ki” value in assay [2] stood at 3830 M⁻¹ s⁻¹. Also, the “CFA Efficacy” value in assay [3] (setting [4]) is recorded as “(+)”.
As for `Cc1noc(NC(=O)N2CCC3(CC2)CC(c2ccc(Cl)c(Cl)c2)CO3)c1C` (single isomer, unassigned) [Example 37, 3-(3,4-dichlorophenyl)-N-(3,4-dimethylisoxazol-5-yl)-1-oxa-8-azaspiro[4.5]decane-8-carboxamide], the “hFAAH kinact/Ki” value in assay [1] was 4130 M⁻¹ s⁻¹. Besides, the kinact/KI in assay [2] is 4540 M⁻¹ s⁻¹. In addition, the “CFA Efficacy” value in assay [3] (setting [4]) is reported as “(+)”.
Regarding `Cc1noc(NC(=O)N2CCC3(CC2)CC(c2cc(F)cc(Cl)c2)CO3)c1C` (single isomer, unassigned) [Example 39, 3-(3-chloro-5-fluorophenyl)-N-(3,4-dimethylisoxazol-5-yl)-1-oxa-8-azaspiro[4.5]decane-8-carboxamide], in assay [1], the kinact/KI turned out to be 1810 M⁻¹ s⁻¹. Moreover, the “rFAAH kinact/Ki” value in assay [2] was determined as 1510 M⁻¹ s⁻¹. For the same compound, the “CFA Efficacy” value in assay [3] (setting [4]) was “(+)”.
For the compound `Cc1noc(NC(=O)N2CCC3(CC2)CC(c2ccc(OCc4ccccc4Cl)c(Cl)c2)CO3)c1C` (single isomer, unassigned) [Example 43, 3-{3-chloro-4-[(2-chlorobenzyl)oxy]phenyl}-N-(3,4-dimethylisoxazol-5-yl)-1-oxa-8-azaspiro[4.5]decane-8-carboxamide], in assay [1], the “hFAAH kinact/Ki” value is 3620 M⁻¹ s⁻¹. In addition, the “rFAAH kinact/Ki” value in assay [2] amounted to 5870 M⁻¹ s⁻¹. The “CFA Efficacy” value in assay [3] (setting [4]) was “(+)”.
On the same counts, the results for `Cc1noc(NC(=O)N2CCC3(CC2)CC(c2ccc(OCc4ccccc4Cl)c(Cl)c2)CO3)c1C` (single isomer, unassigned) [Example 44, 3-{3-chloro-4-[(2-chlorobenzyl)oxy]phenyl}-N-(3,4-dimethylisoxazol-5-yl)-1-oxa-8-azaspiro[4.5]decane-8-carboxamide] are 1330 M⁻¹ s⁻¹, 1950 M⁻¹ s⁻¹ and “(+)”.
`Cc1noc(NC(=O)N2CCC3(CC2)CC(c2ccc(OCc4cccc(Cl)c4)c(Cl)c2)CO3)c1C` (single isomer, unassigned) [Example 45, 3-{3-chloro-4-[(3-chlorobenzyl)oxy]phenyl}-N-(3,4-dimethylisoxazol-5-yl)-1-oxa-8-azaspiro[4.5]decane-8-carboxamide]: the figures for the kinact/KI in assay [1] and in assay [2] were 6240 M⁻¹ s⁻¹ and 7130 M⁻¹ s⁻¹, respectively. The “CFA Efficacy” value in assay [3] (setting [4]) is on record as “(+)”.
Turning to `Cc1noc(NC(=O)N2CCC3(CC2)CC(c2ccc(OCc4cccc(Cl)c4)c(Cl)c2)CO3)c1C` (single isomer, unassigned) [Example 46, 3-{3-chloro-4-[(3-chlorobenzyl)oxy]phenyl}-N-(3,4-dimethylisoxazol-5-yl)-1-oxa-8-azaspiro[4.5]decane-8-carboxamide], the “hFAAH kinact/Ki” value in assay [1] is 4490 M⁻¹ s⁻¹. Besides, in assay [2], the “rFAAH kinact/Ki” value is 6920 M⁻¹ s⁻¹. Also, the “CFA Efficacy” value in assay [3] (setting [4]) is “(+)”.
With `CCc1noc(NC(=O)N2CCC3(CC2)CC(c2ccc(Cl)c(Cl)c2)CO3)c1C` (single isomer, unassigned) [Example 68, 3-(3,4-dichlorophenyl)-N-(3-ethyl-4-methylisoxazol-5-yl)-1-oxa-8-azaspiro[4.5]decane-8-carboxamide], the kinact/KI in assay [1] was 1920 M⁻¹ s⁻¹; in assay [2], 3030 M⁻¹ s⁻¹. Besides, the “CFA Efficacy” value in assay [3] (setting [4]) was “(+)”.
The like results for `Cc1noc(NC(=O)N2CCC3(CC2)CC(c2noc(-c4ccc(OC(F)(F)F)cc4)n2)CO3)c1C` (single isomer, unassigned) [Example 72, N-(3,4-dimethylisoxazol-5-yl)-3-{5-[4-(trifluoromethoxy)phenyl]-1,2,4-oxadiazol-3-yl}-1-oxa-8-azaspiro[4.5]decane-8-carboxamide] were, in that order, 4250 M⁻¹ s⁻¹, 1500 M⁻¹ s⁻¹ and “(+)”.
Take `Cc1noc(NC(=O)N2CCC3(CC2)CC(c2noc(-c4ccc(OC(F)(F)F)cc4)n2)CO3)c1C` (single isomer, unassigned) [Example 73, N-(3,4-dimethylisoxazol-5-yl)-3-{5-[4-(trifluoromethoxy)phenyl]-1,2,4-oxadiazol-3-yl}-1-oxa-8-azaspiro[4.5]decane-8-carboxamide]: the “hFAAH kinact/Ki” value in assay [1] came to 2150 M⁻¹ s⁻¹. Further, the “rFAAH kinact/Ki” value in assay [2] came to 1340 M⁻¹ s⁻¹. In addition, in assay [3] (setting [4]), the “CFA Efficacy” value is recorded as “(+)”.
Take `Cc1noc(NC(=O)N2CCC3(CC2)CC(c2noc(-c4ccc(C(F)(F)F)cc4)n2)CO3)c1C` (single isomer, unassigned) [Example 75, N-(3,4-dimethylisoxazol-5-yl)-3-{5-[4-(trifluoromethyl)phenyl]-1,2,4-oxadiazol-3-yl}-1-oxa-8-azaspiro[4.5]decane-8-carboxamide]: the kinact/KI turned out to be 3570 M⁻¹ s⁻¹ in assay [1] and 1610 M⁻¹ s⁻¹ in assay [2]. Further, in assay [3] (setting [4]), the “CFA Efficacy” value is given as “(+)”.
